The results in this text go back to patent US9803021B2 (The Regents of the University of California, priority 2012, dated 2017).

Test in all cases: Cell cycle analysis (PI DNA content, flow cytometry)
Common to all, as to assay type: cell-based, human
On the technique in general: Flow cytometry measures light scatter and fluorescence of single cells or particles in a stream.

One assay has as its system ANBL-6. Conditions: ANBL-6, 500 pM, 4 days. The protocol: (§1) Cells were incubated with 1 ml of hypotonic DNA staining buffer (1 mg/ml sodium citrate, 100 μg/ml PI, 20 μg/ml RNase A, and 0.3% Triton X-100 in dH2O) for 30-60 min at 4° C. in the dark. Cells were analyzed by flow cytometry and cell cycle analysis performed using FlowJo software with the Watson Model.
(§2) Cells were incubated with 1 ml of hypotonic DNA staining buffer (1 mg/ml sodium citrate, 100 μg/ml PI, 20 μg/ml RNase A, and 0.3% Triton X-100) for 30-60 minutes at 4° C. in the dark. Cells were analyzed by flow cytometry and cell cycle analysis performed using FlowJo software with the Watson Model.

For the next assay, the system named is MM1-144. To be noted: MM1-144, 500 pM, 4 days. The protocol: as §1, §2
In the next assay the test system is U266. To be noted: U266, 500 pM, 4 days. The protocol: as §1, §2
The next assay relates to OCI-My5. Conditions: OCI-My5, 500 pM, 4 days. The protocol: as §1, §2

For the substance “anti-CD138-IFNα: Fusion protein: murine B-B4 anti-CD138 variable regions, human IgG1κ constant regions, human IFNα2 fused to the antibody C-terminus via SGGGGS linker”, in the assay with ANBL-6, the “% G1” value turned out to be 63.6%, the “% G2/M” value was 18.0%, the “% S” value was 14.0% and the “>G2” value stood at 0.0%. The “Sub G0/G1” value in the assay with ANBL-6 is listed as 19.6%. Further, in the assay on MM1-144, the “% G1” value stood at 22.6%, the “% G2/M” value is 34.3%, the “% S” value is 29.9% and the “>G2” value came out at 11.2%. Moreover, in the assay with MM1-144, the “Sub G0/G1” value is reported as 11.3%. Moreover, in the assay on U266, the “% G1” value turned out to be 53.9%, the “% G2/M” value was 15.1%, the “% S” value came out at 21.4% and the “>G2” value amounted to 5.5%. For the same substance, the “Sub G0/G1” value in the assay on U266 is 13.2%. In the assay with OCI-My5, the “% G1” value is listed as 25.6%, the “% G2/M” value was found to be 20.5%, the “% S” value was found to be 49.0% and the “>G2” value is 1.5%. For the same substance, in the assay on OCI-My5, the “Sub G0/G1” value is reported as 17.9% and the “changes in cell cycle / DNA content, result in words” value is recorded as “did not cause apoptosis or blocks to cell cycle progression”.
